Assay results reported in PubChem BioAssay (NCI).
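Five compound concentrations were applied to cells in 96-well plates for 48 hours; endpoints were derived by simple linear interpolation of the resulting dose-response curve. TGI marks complete inhibition of growth.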

Experiments:
Assay in all cases: growth of human tumour cells (NCI), 48 h
[1] = test system: SK-MEL-5 melanoma
[2] = test system: BT-549 breast
[3] = test system: HCT-15 colon
[4] = test system: SN12C renal
[5] = test system: MALME-3M melanoma
[6] = test system: SF-539 CNS
[7] = test system: OVCAR-8 ovarian
[8] = test system: CAKI-1 renal
[9] = test system: NCI/ADR-RES ovarian
[10] = test system: A498 renal

Structure (SMILES) | TGI [1] [µM] | TGI [2] [µM] | TGI [3] [µM] | TGI [4] [µM] | TGI [5] [µM] | TGI [6] [µM] | TGI [7] [µM] | TGI [8] [µM] | TGI [9] [µM] | TGI [10] [µM]
CC(C(=O)NCNC(=O)c1ccccc1)C(=O)NCc1ccccc1 (stereo not drawn) | > 100 | > 100 | > 100 | > 100 | > 100 | > 100 | > 100 | > 100 | > 100 | –
COc1nc2c(c(=O)[nH]1)N=C(c1ccc([N+](=O)[O-])cc1)CC(c1ccccc1)N2 (stereo not drawn) | > 100 | > 100 | – | > 100 | > 100 | > 100 | > 100 | > 100 | > 100 | > 100
NS(=O)(=O)c1ccc(NCc2cccc3c(=O)c4ccc(Cl)cc4oc23)cc1 | > 100 | > 96.7 | > 100 | > 100 | > 66.5 | > 64.6 | > 67.2 | > 85.7 | > 100 | > 100
O=[N+]([O-])c1ccc(-c2ccc([C@H]3CC(c4cc(F)c(Cl)cc4Cl)=NN3)o2)cc1 | 32.2 | 90.9 | > 100 | > 100 | > 100 | 30.1 | > 100 | > 100 | 90.2 | > 100
CCOC(=O)c1cn2c(n1)sc1cc([N+](=O)[O-])ccc12 | > 100 | > 100 | > 100 | > 100 | > 100 | > 100 | > 100 | > 100 | > 100 | > 100
C[N+](C)(C)CC(=O)N/N=C\c1c(O)ccc2ccccc12 | 39.3 | – | > 100 | > 100 | 38.3 | > 100 | > 100 | > 100 | > 100 | 97.8
CC12CCC(C(=Nc3ccc([N+](=O)[O-])cc3)C1=O)C2(C)C (stereo not drawn) | 90.7 | > 100 | > 100 | – | 30 | 42.2 | 55.3 | > 100 | 63.5 | > 100
COCc1nc(C#N)c(N)o1 | > 10 | > 10 | > 10 | > 10 | > 10 | > 10 | > 10 | > 10 | > 10 | –
O=C(O)OC12CCCCCC1C(=O)C1CCCCC12 (stereo not drawn) | > 100 | – | > 100 | > 100 | > 100 | – | > 100 | – | – | –
C/C(=C\COP(=O)(O)CP(=O)(O)O)CC/C=C(\C)CNc1ccccc1 | > 100 | > 100 | > 100 | > 100 | – | > 100 | > 100 | > 100 | > 100 | –
O=C1OCC2=C1C(c1ccc(Cl)cc1)c1cc3c(cc1O2)OCO3 (stereo not drawn) | > 100 | – | > 100 | > 100 | > 100 | > 25.1 | > 100 | 10.8 | > 31.2 | > 100
O=C(c1ccccc1)N1N=C(C(F)(F)F)CC1(O)C(F)(F)F (stereo not drawn) | – | > 100 | > 100 | > 100 | > 100 | > 100 | > 100 | – | > 100 | > 100
O=[N+]([O-])c1cccc(-c2ccc([C@H]3CC(c4ccc(Cl)cc4)=NN3)o2)c1 | 32.2 | 74.9 | 40.3 | 53.4 | 71.6 | – | 27.4 | 60.5 | 76.3 | 88.2
CC1=C(C(N)=O)C(c2ccncc2)C(C#N)C(=O)N1 (stereo not drawn) | > 100 | – | > 100 | – | – | > 100 | – | > 100 | – | > 100
Cc1ccc(Nc2nc3ccccc3nc2NS(=O)(=O)c2ccc(N)cc2)cc1 | > 100 | > 100 | > 100 | > 100 | > 100 | > 100 | > 100 | > 100 | > 100 | –
O=c1cc(O)c1=O | > 100 | > 100 | > 100 | > 100 | > 100 | > 100 | > 100 | > 100 | – | > 100
COc1cccc(O)c1-c1cc(=O)c2c(O)c(OC)c(OC)c(OC)c2o1 | 39.4 | 73.6 | > 100 | 93.4 | > 100 | > 100 | > 100 | > 100 | 71.7 | –
O=C1/C(=C/c2ccc(Cl)cc2)NC(=S)N1CN1CCCCC1 | 97.4 | – | 58.2 | > 100 | 88.7 | – | > 100 | – | 72 | > 100
COc1ccc2c(c1)SC1=Nc3sc4cc(OC)ccc4[n+]3CN12 | 15.6 | > 100 | > 100 | > 100 | 57 | > 100 | > 100 | > 100 | > 100 | –
Cn1c2ccccc2n2c3ccccc3c3nnc(N)c-3c12 | > 100 | 13.8 | > 100 | 10 | 32.3 | – | > 100 | > 100 | > 100 | > 100
COC(=O)C#CC1(O)C=CC(=O)C=C1 | – | 3.42 | 4.32 | – | 4.48 | > 35.1 | 15.4 | – | > 100 | > 100
CC(=O)OCC1OC(Sc2nc(-c3ccccc3)c(C#N)c(=O)n2C2OC(COC(C)=O)C(OC(C)=O)C(OC(C)=O)C2OC(C)=O)C(OC(C)=O)C(OC(C)=O)C1OC(C)=O (stereo not drawn) | > 100 | > 100 | > 100 | > 100 | – | > 100 | > 100 | > 100 | > 100 | > 100
COc1ccc(C2OC2C(=O)C23CC4CC(CC(C4)C2)C3)cc1 (stereo not drawn) | > 100 | – | > 100 | > 100 | > 100 | > 100 | > 100 | – | > 100 | > 100

Structure (SMILES) | TGI [1] [µM] | TGI [2] [µM] | TGI [3] [µM] | TGI [4] [µM] | TGI [5] [µM] | TGI [6] [µM] | TGI [7] [µM] | TGI [8] [µM] | TGI [9] [µM] | TGI [10] [µM]
COC(=O)[C@@H](N1C(=O)c2ccccc2C1=O)C1(C)CC(Cl)=NO1 (stereo partly drawn) | > 100 | > 100 | > 100 | > 100 | > 100 | – | 37 | 83.7 | 68.2 | 99.7
Nc1ccc(Oc2ccc(C3(c4ccc(Oc5ccc(N)c(O)c5)cc4)C4CC5CC(C4)CC3C5)cc2)cc1O | 3.02 | 5.27 | – | 3.62 | 3.92 | 2.35 | – | 5.03 | 5.91 | 31
CC(C)C1CC(CO)(CNc2nc(N)nc(Cl)c2C=O)C1 (stereo not drawn) | – | 52.2 | 32.1 | 28.5 | 44.3 | 41.5 | 8.33 | – | 23.8 | 56.1
Cc1nnc(NS(=O)(=O)c2ccc(N=Nc3c(O)c(C(=O)O)cc4ccccc34)cc2)s1 | > 100 | – | > 100 | > 100 | > 100 | > 100 | > 100 | > 100 | > 100 | –
CCc1c(N=[N+]=[N-])c2ccccc2oc1=O | – | > 100 | > 100 | > 100 | > 100 | > 100 | > 100 | – | > 100 | > 100
FC(F)(F)c1ccc2c(c1)nc(Cc1ccc(Cl)cc1)n2CC1CCCN2CCCCC12 (stereo not drawn) | 15.2 | 23.7 | 20.9 | 21.4 | 3.8 | – | 23.4 | 30.4 | 20.8 | 27.1
COc1cc(OC)cc(Oc2nc3ccc(C(F)(F)F)cc3nc2-c2ccccc2)c1 | > 100 | > 100 | > 100 | – | > 100 | > 100 | > 100 | > 100 | > 100 | > 100
O=C1C/C(=C\c2ccccc2)C(=O)c2ccccc2N1 | 36.2 | – | 44.7 | 34.8 | 34.2 | 39.4 | 39.1 | 33.1 | 54.7 | 35.4
Cc1c(CNc2ccc(Cl)c(Cl)c2Cl)cnc2nc(N)nc(N)c12 | – | 50.8 | > 100 | > 100 | > 100 | 12.2 | 1.41 | > 100 | > 100 | > 100
CC(C)OP(=O)(OC(C)C)C(=Nc1ccc(N=C(NNc2ccc([N+](=O)[O-])cc2)P(=O)(OC(C)C)OC(C)C)cc1)NNc1ccc([N+](=O)[O-])cc1 | > 100 | – | > 100 | > 100 | > 100 | > 100 | > 100 | > 100 | – | > 100
COc1cc(N(CCC#N)CCC#N)ccc1/C(N=Nc1cccc([N+](=O)[O-])c1)=N\NC(=O)c1ccc(C)cc1 | > 100 | > 100 | > 100 | > 100 | > 100 | – | > 100 | > 100 | > 100 | > 100
CCCCCCCC(=O)N1C2CC3CCC2(CS1(=O)=O)C3(C)C (stereo not drawn) | 34.4 | 71.6 | 26.7 | 49.1 | 34 | 41.5 | > 100 | 61.7 | – | > 100
CC(C)=CCN1c2ccccc2[C@@]2(CC=C(C)C)CCN(C)[C@@H]12 | 33.2 | > 100 | > 100 | > 100 | 38.4 | 64.9 | 90.2 | > 100 | 53.5 | –
CCOC(=O)/C(C#N)=c1/s/c(=C(\O)N/N=C/c2ccc(OC)cc2)c(=N)n1-c1ccccc1 | > 100 | – | – | – | – | > 100 | > 100 | – | – | –
O=[N+]([O-])C1=Cc2c(O)ccc(O)c2C2c3ccccc3NC12 (stereo not drawn) | 27.6 | 25.8 | 36.4 | 30.9 | – | 63 | > 42.6 | 8.99 | 51 | 29.8
CC(=O)OC(C(=O)NNC(=O)OC(C)(C)C)c1ccccc1 (stereo not drawn) | > 100 | > 100 | > 100 | > 100 | > 100 | > 100 | > 100 | > 100 | > 100 | –
CCO/C=N\C1=C(C#N)SC2=N/C(=C\c3ccco3)C(=O)N21 | > 100 | – | > 100 | > 100 | > 100 | > 100 | > 100 | > 100 | > 100 | > 100
N#CC(C#N)=CNC(=S)Nc1ccc(S(=O)(=O)Nc2nccs2)cc1 | > 100 | > 100 | > 100 | > 100 | – | > 100 | > 100 | > 100 | > 100 | > 100
NC(Cc1c2ccccc2cc2ccccc12)C(=O)O (stereo not drawn) | > 100 | – | > 100 | > 100 | > 100 | > 100 | > 100 | > 100 | > 100 | –
CC(=O)Nc1ccc2c3c(cc(O)c2c1)N(C(=O)CCCCCCC(=O)Nc1ccc2c4c(cc(O)c2c1)N(C(=O)OC(C)(C)C)CC4CCl)CC3CCl (stereo not drawn) | 0.0783 | 0.979 | > 38.5 | 2.59 | – | 0.396 | > 32.9 | 17.2 | > 72 | 0.0819
O=C(O)c1ccc2nc(-c3ccccn3)c(-c3ccccn3)nc2c1 | > 100 | > 100 | > 100 | – | – | > 100 | > 100 | > 100 | > 100 | > 100
COC(=O)[C@]1(CCC(C)=O)C(=O)C=CN([C@H](C)c2ccccc2)[C@@H]1Cc1ccc(OC)c(OCc2ccccc2)c1I | 26.9 | 46.3 | 43.5 | 35 | – | 32.9 | 85.2 | > 100 | 62.8 | 50.1
Nc1cc2c(C3OC(CO)C(O)C3O)[nH]nc2c(=S)[nH]1 (stereo not drawn) | > 100 | – | > 100 | > 100 | > 100 | > 100 | > 100 | > 100 | – | > 100
